{"source": "patent US9828360B2", "about": "(Array BioPharma Inc., priority 2012, dated 2017)", "assay_in_all_cases": "KinaseProfiler off-target kinase profiling", "type_in_all_cases": "biochemical", "conditions_in_all_cases": "10 μM, ATP near Km", "key": {"[1]": {"target": "T1, Rsk3 (Homo sapiens, UniProt Q15349)", "T1 construct": "purchased Millipore, Inc. (KinaseProfiler service)", "description": "(§1) A representative compound of the invention (Example 48) was tested for off-target kinase activity at a concentration of 10 μM by Millipore, Inc. in their KinaseProfiler™ service against all the kinases available in their full kinase panel. The compound was run in duplicate at a concentration of ATP near the Km for each individual kinase according to Millipore's specifications. The results are shown in Table B. Data are reported as percent of control (POC) and are the average of the two replicates."}, "[2]": {"target": "T2, PDK1 (Homo sapiens, UniProt O15530)", "T2 construct": "purchased Millipore, Inc. (KinaseProfiler service)", "description": "as §1"}, "[3]": {"target": "T3, c-RAF (Homo sapiens, UniProt P04049, Y340D/Y341D)", "T3 construct": "purchased Millipore, Inc. (KinaseProfiler service)", "description": "as §1"}, "[4]": {"target": "T4, IRAK4 (Homo sapiens, UniProt Q9NWZ3)", "T4 construct": "purchased Millipore, Inc. (KinaseProfiler service)", "description": "as §1"}, "[5]": {"target": "T5, IRR (Homo sapiens, UniProt P14616)", "T5 construct": "purchased Millipore, Inc. (KinaseProfiler service)", "description": "as §1"}, "[6]": {"target": "T6, NEK3 (Homo sapiens, UniProt P51956)", "T6 construct": "purchased Millipore, Inc. (KinaseProfiler service)", "description": "as §1"}, "[7]": {"target": "T7, ZAP-70 (Homo sapiens, UniProt P43403)", "T7 construct": "purchased Millipore, Inc. (KinaseProfiler service)", "description": "as §1"}, "[8]": {"target": "T8, MYLK (Homo sapiens, UniProt Q15746)", "T8 construct": "purchased Millipore, Inc. (KinaseProfiler service)", "description": "as §1"}, "[9]": {"target": "T9, CDK1/cyclinB (Homo sapiens, UniProt P06493)", "T9 construct": "purchased Millipore, Inc. (KinaseProfiler service)", "description": "as §1"}, "[10]": {"target": "T10, mTOR (Homo sapiens, UniProt P42345)", "T10 construct": "purchased Millipore, Inc. (KinaseProfiler service)", "description": "as §1"}, "[11]": {"target": "T11, PDGFRalpha (Homo sapiens, UniProt P16234)", "T11 construct": "purchased Millipore, Inc. (KinaseProfiler service)", "description": "as §1"}, "[12]": {"target": "T12, Abl-P (Homo sapiens, UniProt P00519)", "T12 construct": "purchased Millipore, Inc. (KinaseProfiler service)", "description": "as §1"}, "[13]": {"target": "T13, JNK1alpha1 (Homo sapiens, UniProt P45983)", "T13 construct": "purchased Millipore, Inc. (KinaseProfiler service)", "description": "as §1"}, "[14]": {"target": "T14, Plk3 (Homo sapiens, UniProt Q9H4B4)", "T14 construct": "purchased Millipore, Inc. (KinaseProfiler service)", "description": "as §1"}, "[15]": {"target": "T15, Pim-3 (Homo sapiens, UniProt Q86V86)", "T15 construct": "purchased Millipore, Inc. (KinaseProfiler service)", "description": "as §1"}, "[16]": {"target": "T16, Plk1 (Homo sapiens, UniProt P53350)", "T16 construct": "purchased Millipore, Inc. (KinaseProfiler service)", "description": "as §1"}, "[17]": {"target": "T17, MEK1 (Homo sapiens, UniProt Q02750)", "T17 construct": "purchased Millipore, Inc. (KinaseProfiler service)", "description": "as §1"}, "[18]": {"target": "T18, Bmx (Homo sapiens, UniProt P51813)", "T18 construct": "purchased Millipore, Inc. (KinaseProfiler service)", "description": "as §1"}, "[19]": {"target": "T19, CAMK1d (Homo sapiens, UniProt Q8IU85)", "T19 construct": "purchased Millipore, Inc. (KinaseProfiler service)", "T19 sequence (Q8IU85 whole entry)": "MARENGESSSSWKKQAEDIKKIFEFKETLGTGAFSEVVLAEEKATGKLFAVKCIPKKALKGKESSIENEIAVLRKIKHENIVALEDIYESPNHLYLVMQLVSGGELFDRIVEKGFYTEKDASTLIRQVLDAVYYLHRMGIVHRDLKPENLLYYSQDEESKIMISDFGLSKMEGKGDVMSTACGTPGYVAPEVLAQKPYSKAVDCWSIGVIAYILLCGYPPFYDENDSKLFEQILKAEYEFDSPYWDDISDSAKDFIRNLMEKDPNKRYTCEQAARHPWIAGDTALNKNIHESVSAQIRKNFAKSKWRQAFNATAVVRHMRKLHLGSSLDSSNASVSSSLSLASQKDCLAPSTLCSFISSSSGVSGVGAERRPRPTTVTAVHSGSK", "description": "as §1"}, "[20]": {"target": "T20, CAMK2b (Homo sapiens, UniProt Q13554)", "T20 construct": "purchased Millipore, Inc. (KinaseProfiler service)", "description": "as §1"}, "[21]": {"target": "T21, CDK2/cyclinA (Homo sapiens, UniProt P24941)", "T21 construct": "purchased Millipore, Inc. (KinaseProfiler service)", "description": "as §1"}, "[22]": {"target": "T22, ALK (Homo sapiens, UniProt Q9UM73)", "T22 construct": "purchased Millipore, Inc. (KinaseProfiler service)", "description": "as §1"}, "[23]": {"target": "T23, PAK2 (Homo sapiens, UniProt Q13177)", "T23 construct": "purchased Millipore, Inc. (KinaseProfiler service)", "description": "as §1"}, "[24]": {"target": "T24, MRCKbeta (Homo sapiens, UniProt Q9Y5S2)", "T24 construct": "purchased Millipore, Inc. (KinaseProfiler service)", "description": "as §1"}, "[25]": {"target": "T25, TAK1 (Homo sapiens, UniProt O43318)", "T25 construct": "purchased Millipore, Inc. (KinaseProfiler service)", "description": "as §1"}, "[26]": {"target": "T26, DAPK2 (Homo sapiens, UniProt Q9UIK4)", "T26 construct": "purchased Millipore, Inc. (KinaseProfiler service)", "T26 sequence (Q9UIK4 whole entry)": "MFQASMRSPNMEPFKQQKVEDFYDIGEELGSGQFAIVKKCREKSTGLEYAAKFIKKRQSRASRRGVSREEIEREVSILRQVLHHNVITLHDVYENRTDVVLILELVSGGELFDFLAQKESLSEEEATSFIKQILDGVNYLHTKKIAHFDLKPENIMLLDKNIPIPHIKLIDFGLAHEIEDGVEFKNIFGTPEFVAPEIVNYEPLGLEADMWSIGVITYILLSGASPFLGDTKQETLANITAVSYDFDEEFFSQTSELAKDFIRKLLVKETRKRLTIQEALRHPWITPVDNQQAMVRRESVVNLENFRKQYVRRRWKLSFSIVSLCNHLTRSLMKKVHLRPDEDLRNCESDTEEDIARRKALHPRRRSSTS", "description": "as §1"}, "[27]": {"target": "T27, EphA2 (Homo sapiens, UniProt P29317)", "T27 construct": "purchased Millipore, Inc. (KinaseProfiler service)", "description": "as §1"}, "[28]": {"target": "T28, MRCKalpha (Homo sapiens, UniProt Q5VT25)", "T28 construct": "purchased Millipore, Inc. (KinaseProfiler service)", "description": "as §1"}, "[29]": {"target": "T29, Flt3 (Homo sapiens, UniProt P36888)", "T29 construct": "purchased Millipore, Inc. (KinaseProfiler service)", "description": "as §1"}, "[30]": {"target": "T30, ARK5 (Homo sapiens, UniProt O60285)", "T30 construct": "purchased Millipore, Inc. (KinaseProfiler service)", "description": "as §1"}, "[31]": {"target": "T31, MAPKAP-K3 (Homo sapiens, UniProt Q16644)", "T31 construct": "purchased Millipore, Inc. (KinaseProfiler service)", "T31 sequence (Q16644 whole entry)": "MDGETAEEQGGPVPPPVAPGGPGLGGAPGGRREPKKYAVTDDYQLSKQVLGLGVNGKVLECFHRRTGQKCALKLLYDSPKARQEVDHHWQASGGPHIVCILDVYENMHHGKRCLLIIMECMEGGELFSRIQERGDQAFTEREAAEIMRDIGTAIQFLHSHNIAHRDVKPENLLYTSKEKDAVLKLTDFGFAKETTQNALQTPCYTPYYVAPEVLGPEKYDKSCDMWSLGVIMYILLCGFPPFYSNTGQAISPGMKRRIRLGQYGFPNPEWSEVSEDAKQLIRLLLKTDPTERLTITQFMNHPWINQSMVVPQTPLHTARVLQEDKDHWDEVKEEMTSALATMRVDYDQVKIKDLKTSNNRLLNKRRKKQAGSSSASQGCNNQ", "description": "as §1"}, "[32]": {"target": "T32, JNK3 (Homo sapiens, UniProt P53779)", "T32 construct": "purchased Millipore, Inc. (KinaseProfiler service)", "T32 sequence (P53779 whole entry)": "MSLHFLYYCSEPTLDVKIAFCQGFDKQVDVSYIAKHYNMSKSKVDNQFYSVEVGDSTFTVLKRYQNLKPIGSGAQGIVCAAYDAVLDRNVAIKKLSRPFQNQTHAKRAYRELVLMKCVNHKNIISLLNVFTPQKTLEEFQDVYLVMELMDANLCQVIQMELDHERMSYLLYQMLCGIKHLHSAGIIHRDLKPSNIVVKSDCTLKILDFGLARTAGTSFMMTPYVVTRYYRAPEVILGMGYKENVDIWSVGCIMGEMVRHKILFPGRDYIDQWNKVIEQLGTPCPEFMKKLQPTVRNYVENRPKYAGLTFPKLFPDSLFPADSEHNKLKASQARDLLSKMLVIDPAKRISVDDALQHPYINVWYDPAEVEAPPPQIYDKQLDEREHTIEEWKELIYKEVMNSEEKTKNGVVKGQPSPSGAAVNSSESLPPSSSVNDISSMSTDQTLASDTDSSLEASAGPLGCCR", "description": "as §1"}, "[33]": {"target": "T33, Ros (Homo sapiens, UniProt P08922)", "T33 construct": "purchased Millipore, Inc. (KinaseProfiler service)", "T33 sequence (P08922 28-2347)": "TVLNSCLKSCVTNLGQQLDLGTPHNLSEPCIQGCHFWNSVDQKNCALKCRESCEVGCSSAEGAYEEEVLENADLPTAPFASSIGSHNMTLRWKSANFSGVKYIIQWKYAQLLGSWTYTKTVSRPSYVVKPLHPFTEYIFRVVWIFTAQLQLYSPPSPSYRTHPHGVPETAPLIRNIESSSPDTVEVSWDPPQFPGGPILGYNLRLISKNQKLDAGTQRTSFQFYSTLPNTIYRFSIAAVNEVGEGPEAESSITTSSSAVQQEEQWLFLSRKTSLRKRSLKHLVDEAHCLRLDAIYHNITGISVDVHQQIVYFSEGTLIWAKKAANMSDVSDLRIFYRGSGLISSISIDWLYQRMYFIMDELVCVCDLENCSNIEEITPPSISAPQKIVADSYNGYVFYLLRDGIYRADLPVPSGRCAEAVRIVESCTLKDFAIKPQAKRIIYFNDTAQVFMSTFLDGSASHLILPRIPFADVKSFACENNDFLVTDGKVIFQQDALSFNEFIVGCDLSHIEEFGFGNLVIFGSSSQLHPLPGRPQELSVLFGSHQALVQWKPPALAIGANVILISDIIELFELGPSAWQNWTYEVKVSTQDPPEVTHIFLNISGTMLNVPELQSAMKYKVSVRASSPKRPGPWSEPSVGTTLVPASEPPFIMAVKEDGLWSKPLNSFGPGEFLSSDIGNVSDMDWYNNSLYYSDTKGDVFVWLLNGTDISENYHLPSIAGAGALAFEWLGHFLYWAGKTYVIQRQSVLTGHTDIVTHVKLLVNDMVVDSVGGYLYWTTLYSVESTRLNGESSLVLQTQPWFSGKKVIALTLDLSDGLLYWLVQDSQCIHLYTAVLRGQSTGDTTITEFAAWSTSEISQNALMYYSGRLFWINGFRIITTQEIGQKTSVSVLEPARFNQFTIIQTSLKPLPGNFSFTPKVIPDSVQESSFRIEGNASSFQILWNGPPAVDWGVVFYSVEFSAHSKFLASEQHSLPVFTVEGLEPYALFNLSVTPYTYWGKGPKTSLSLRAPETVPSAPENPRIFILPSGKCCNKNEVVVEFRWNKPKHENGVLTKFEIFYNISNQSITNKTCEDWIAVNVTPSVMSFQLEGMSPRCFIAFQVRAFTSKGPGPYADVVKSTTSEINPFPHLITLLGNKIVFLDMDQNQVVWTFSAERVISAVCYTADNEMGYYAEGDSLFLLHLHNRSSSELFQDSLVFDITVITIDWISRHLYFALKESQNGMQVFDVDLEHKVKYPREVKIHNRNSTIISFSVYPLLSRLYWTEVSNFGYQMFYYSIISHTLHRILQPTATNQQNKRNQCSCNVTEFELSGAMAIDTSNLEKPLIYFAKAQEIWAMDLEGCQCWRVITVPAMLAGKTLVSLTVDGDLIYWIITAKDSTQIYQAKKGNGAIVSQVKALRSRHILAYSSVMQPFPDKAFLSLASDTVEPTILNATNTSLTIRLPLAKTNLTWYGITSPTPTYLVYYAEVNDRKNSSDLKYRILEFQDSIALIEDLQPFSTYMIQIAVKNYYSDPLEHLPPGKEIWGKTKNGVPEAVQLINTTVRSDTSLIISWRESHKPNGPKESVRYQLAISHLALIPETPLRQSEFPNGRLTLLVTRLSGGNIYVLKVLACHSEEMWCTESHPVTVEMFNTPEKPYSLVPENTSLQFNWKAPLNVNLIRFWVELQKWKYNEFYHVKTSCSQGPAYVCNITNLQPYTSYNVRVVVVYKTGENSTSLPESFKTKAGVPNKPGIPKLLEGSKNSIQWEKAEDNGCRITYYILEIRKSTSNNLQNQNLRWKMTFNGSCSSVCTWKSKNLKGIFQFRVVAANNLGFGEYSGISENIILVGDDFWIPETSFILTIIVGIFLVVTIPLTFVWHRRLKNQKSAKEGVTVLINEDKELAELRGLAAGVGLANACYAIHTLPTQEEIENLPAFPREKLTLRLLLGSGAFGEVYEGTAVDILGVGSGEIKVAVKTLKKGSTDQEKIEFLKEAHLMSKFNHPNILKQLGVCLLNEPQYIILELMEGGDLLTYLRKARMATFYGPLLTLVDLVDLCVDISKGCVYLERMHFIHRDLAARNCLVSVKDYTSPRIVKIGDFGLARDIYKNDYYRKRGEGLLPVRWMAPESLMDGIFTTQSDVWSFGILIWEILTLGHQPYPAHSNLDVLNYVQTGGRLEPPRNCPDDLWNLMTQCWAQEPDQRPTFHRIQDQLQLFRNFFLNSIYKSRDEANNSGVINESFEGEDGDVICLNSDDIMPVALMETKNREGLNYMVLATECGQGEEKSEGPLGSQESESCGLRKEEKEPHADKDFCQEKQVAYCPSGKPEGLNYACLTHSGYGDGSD", "description": "as §1"}, "[34]": {"target": "T34, Fgr (Homo sapiens, UniProt P09769)", "T34 construct": "purchased Millipore, Inc. (KinaseProfiler service)", "description": "as §1"}, "[35]": {"target": "T35, DAPK3 (Homo sapiens, UniProt O43293)", "T35 construct": "purchased Millipore, Inc. (KinaseProfiler service)", "T35 sequence (O43293 whole entry)": "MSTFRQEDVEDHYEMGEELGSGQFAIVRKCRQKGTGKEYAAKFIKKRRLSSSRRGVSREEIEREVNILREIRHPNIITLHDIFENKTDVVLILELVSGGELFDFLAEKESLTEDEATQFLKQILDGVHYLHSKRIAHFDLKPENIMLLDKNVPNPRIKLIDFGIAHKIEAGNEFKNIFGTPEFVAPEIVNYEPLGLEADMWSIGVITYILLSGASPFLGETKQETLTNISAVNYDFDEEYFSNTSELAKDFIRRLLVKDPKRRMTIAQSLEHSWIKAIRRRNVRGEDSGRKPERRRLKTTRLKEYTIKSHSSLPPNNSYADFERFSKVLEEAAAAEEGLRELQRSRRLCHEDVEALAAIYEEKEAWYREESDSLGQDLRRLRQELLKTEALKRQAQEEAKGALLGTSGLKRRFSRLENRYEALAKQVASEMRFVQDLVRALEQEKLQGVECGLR", "description": "as §1"}, "[36]": {"target": "T36, CDK2/cyclinE (Homo sapiens, UniProt P24941)", "T36 construct": "purchased Millipore, Inc. (KinaseProfiler service)", "description": "as §1"}, "[37]": {"target": "T37, MST2 (Homo sapiens, UniProt Q13188)", "T37 construct": "purchased Millipore, Inc. (KinaseProfiler service)", "description": "as §1"}, "[38]": {"target": "T38, ALK4 (Homo sapiens, UniProt P36896)", "T38 construct": "purchased Millipore, Inc. (KinaseProfiler service)", "description": "as §1"}, "[39]": {"target": "T39, LOK (Homo sapiens, UniProt O94804)", "T39 construct": "purchased Millipore, Inc. (KinaseProfiler service)", "description": "as §1"}, "[40]": {"target": "T40, EphA8 (Homo sapiens, UniProt P29322)", "T40 construct": "purchased Millipore, Inc. (KinaseProfiler service)", "description": "as §1"}, "[41]": {"target": "T41, DRAK1 (Homo sapiens, UniProt Q9UEE5)", "T41 construct": "purchased Millipore, Inc. (KinaseProfiler service)", "T41 sequence (Q9UEE5 whole entry)": "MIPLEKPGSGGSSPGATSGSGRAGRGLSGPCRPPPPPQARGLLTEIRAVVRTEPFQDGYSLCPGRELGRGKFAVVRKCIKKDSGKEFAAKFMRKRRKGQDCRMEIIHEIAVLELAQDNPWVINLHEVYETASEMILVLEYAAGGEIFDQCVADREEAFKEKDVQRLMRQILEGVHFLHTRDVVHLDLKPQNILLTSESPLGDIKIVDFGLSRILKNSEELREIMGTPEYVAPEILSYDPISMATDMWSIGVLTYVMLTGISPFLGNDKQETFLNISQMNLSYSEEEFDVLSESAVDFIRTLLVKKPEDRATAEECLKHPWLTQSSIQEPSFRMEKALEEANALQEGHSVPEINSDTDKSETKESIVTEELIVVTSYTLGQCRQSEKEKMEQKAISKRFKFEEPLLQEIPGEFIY", "description": "as §1"}}, "data": [{"smiles": "COCCN1C[C@@H](NC(=O)Nc2sc(C(C)C)nc2-c2ccccc2)[C@H](c2ccccc2)C1", "note": "[Example 48, 1-(2-isopropyl-4-phenylthiazol-5-yl)-3-((3S,4R)-1-(2-methoxyethyl)-4-phenylpyrrolidin-3-yl)urea]", "values": [{"measurement": "Avg POC", "setting": "[1]", "result": "108% of control"}, {"measurement": "Avg POC", "setting": "[2]", "result": "85.5% of control"}, {"measurement": "Avg POC", "setting": "[3]", "result": "106% of control"}, {"measurement": "Avg POC", "setting": "[4]", "result": "88% of control"}, {"measurement": "Avg POC", "setting": "[5]", "result": "110.5% of control"}, {"measurement": "Avg POC", "setting": "[6]", "result": "129% of control"}, {"measurement": "Avg POC", "setting": "[7]", "result": "100.5% of control"}, {"measurement": "Avg POC", "setting": "[8]", "result": "107% of control"}, {"measurement": "Avg POC", "setting": "[9]", "result": "106% of control"}, {"measurement": "Avg POC", "setting": "[10]", "result": "99% of control"}, {"measurement": "Avg POC", "setting": "[11]", "result": "104.5% of control"}, {"measurement": "Avg POC", "setting": "[12]", "result": "147.5% of control"}, {"measurement": "Avg POC", "setting": "[13]", "result": "106.5% of control"}, {"measurement": "Avg POC", "setting": "[14]", "result": "113.5% of control"}, {"measurement": "Avg POC", "setting": "[15]", "result": "140.5% of control"}, {"measurement": "Avg POC", "setting": "[16]", "result": "93% of control"}, {"measurement": "Avg POC", "setting": "[17]", "result": "100% of control"}, {"measurement": "Avg POC", "setting": "[18]", "result": "122% of control"}, {"measurement": "Avg POC", "setting": "[19]", "result": "105% of control"}, {"measurement": "Avg POC", "setting": "[20]", "result": "90% of control"}, {"measurement": "Avg POC", "setting": "[21]", "result": "110% of control"}, {"measurement": "Avg POC", "setting": "[22]", "result": "125% of control"}, {"measurement": "Avg POC", "setting": "[23]", "result": "101.5% of control"}, {"measurement": "Avg POC", "setting": "[24]", "result": "140.5% of control"}, {"measurement": "Avg POC", "setting": "[25]", "result": "104% of control"}, {"measurement": "Avg POC", "setting": "[26]", "result": "99% of control"}, {"measurement": "Avg POC", "setting": "[27]", "result": "101% of control"}, {"measurement": "Avg POC", "setting": "[28]", "result": "113.5% of control"}, {"measurement": "Avg POC", "setting": "[29]", "result": "99% of control"}, {"measurement": "Avg POC", "setting": "[30]", "result": "106% of control"}, {"measurement": "Avg POC", "setting": "[31]", "result": "75.5% of control"}, {"measurement": "Avg POC", "setting": "[32]", "result": "106% of control"}, {"measurement": "Avg POC", "setting": "[33]", "result": "111% of control"}, {"measurement": "Avg POC", "setting": "[34]", "result": "111.5% of control"}, {"measurement": "Avg POC", "setting": "[35]", "result": "91% of control"}, {"measurement": "Avg POC", "setting": "[36]", "result": "113% of control"}, {"measurement": "Avg POC", "setting": "[37]", "result": "109.5% of control"}, {"measurement": "Avg POC", "setting": "[38]", "result": "88.5% of control"}, {"measurement": "Avg POC", "setting": "[39]", "result": "107.5% of control"}, {"measurement": "Avg POC", "setting": "[40]", "result": "122.5% of control"}, {"measurement": "Avg POC", "setting": "[41]", "result": "104% of control"}]}]}
